Inhibition data for 9 compounds are collected here from patent US20230303569A1, “HETEROCYCLIC COMPOUNDS AS THERAPEUTIC AGENTS” (Arisan Therapeutics Inc., priority 2021, published 2023).

Each structure is given as a SMILES string. Read-outs that look alike come from different tables or passages of the source.

Common to all, as to assay type: cell-based
In data set [1] the target is T1, human Nav1.5 (pulse 2, state-dependent inhibition) (Homo sapiens, UniProt Q14524).
T1 construct: host or cells: HEK293
Nature of the data set: Two pulse assay protocol, Nav1.5. The settings on record: HEK293 cells stably expressing human Nav1.5, pH 7.3, peak current, pulse 2 (state-dependent), read-out: percent inhibition hNav1.5, Pulse 2 (5 uM). How it is done: (§1) In vitro Na+ Current Inhibition Assays were performed by Eurofins Discovery (St Charles, MO). All compound functional activity determinations were determined through electrophysiological analyses of Na+ currents in HEK293 cells expressing a stably transfected Na+ channel (human Nav1.1, 1.2, 1.3, 1.5, 1.6, 1.7, or 1.8). After harvesting with Accutase cells are maintained in serum free medium at room temperature prior to electrophysiological recording utilizing the QPatch HT automated whole-cell patch-clamp platform (Sophion Bioscience, Woburn MA). Stock solution aliquots of the test compound are prepared in DMSO at 300× the final assay concentrations, and stored at −20° C. until the day of assay. On the day of the assay, an aliquot of the stock solution is thawed and diluted into external solution (137 mM NaCl, 4 mM KCl, 1 mM MgCl2, 1.8 mM CaCl2, 10 mM HEPES, 10 mM Glucose (pH 7.3, titrated with 10M NaOH) to make final test concentrations. A final concentration of 0.33% DMSO is maintained for each concentration of the assay compounds. Internal solution for recordings of Na+ consist consists of 100 mM CsF, 45 mM CsCl, 5 mM NaCl, 10 mM HEPES, 5 mM EGTA (pH 7.3, titrated with 1M CsOH).
(§2) Two pulse assay protocol for human Nav1.1, 1.2, 1.3, 1.5, 1.6, 1.7, and 1.8 channels. Mammalian cultured cells expressing the indicated human Nav1.1, 1.2, 1.3, 1.5, 1.6, 1.7 or 1.8 channels were assayed using the The QPatch HT (Sophion Bioscience, Woburn MA) automated system with an intracellular solution (mM) of 100 CsF, 45 CsCl, 5 NaCl, 10 HEPES, 5 EGTA (pH 7.3, titrated with 1M CsOH) and extracellular solution (mM) of 137 NaCl, 4 KCl, 1 MgCl2, 1.8 CaCl2, 10 HEPES, 10 Glucose (pH 7.3, titrated with 10M NaOH). Onset and steady state block of the sodium channel was measured using a pulse pattern, repeated every 20 seconds (s) from a holding potential of −120 mV for 100 ms, and then pulsed to 0 mV for 500 ms to inactivate the Na channels and facilitate inactivated state-dependent binding of the test compounds. The cell membranes were then stepped back to −120 mV for 10 ms to recover from inactivation into resting or closed state (channels with test compound bound to them will not recover from inactivation and will not open) before stepping to 0 mV for 50 ms (pulse 2) to measure Na channels that are available to open. Peak current was measured during the step to 0 mV at pulse 1 and 2 to measure tonic and state-dependent inhibition. Compound activities were assessed by dividing post current amplitude (at the end of each five (5) minute compound application) by the vehicle control amplitude and the mean calculated for each compound concentration. Tetracaine was used as a positive control and was tested concurrently with the test compounds. Current amplitudes in excess of 200 pA at the control stage were analyzed. The amplitude of the current was calculated by measuring the difference between the peak inward current on stepping to 0 mV (i.e. peak of the current) and remaining current at the end of the step. The current was assessed in vehicle control conditions and then at the end of each five (5) minute compound application.

Data set [2] addresses T2, human Nav1.5 (pulse 1, tonic inhibition) (Homo sapiens, UniProt Q14524).
T2 construct: host or cells: HEK293
Description: Two pulse assay protocol, Nav1.5. The settings on record: HEK293 cells stably expressing human Nav1.5, pH 7.3, peak current, pulse 1 (tonic), read-out: percent inhibition hNav1.5, Pulse 1 (5 uM). How it is done:
as §1, §2

The next data set addresses T3, human Nav1.6 (Homo sapiens, UniProt Q9UQD0).
T3 construct: host or cells: HEK293
Nature of the data set: Two pulse assay protocol, Nav1.6. The settings on record: 5 uM, peak current. How it is done: as §1, §2

The target in a further data set is T4, human Nav1.2 (Homo sapiens, UniProt Q99250).
T4 construct: host or cells: HEK293
Nature of the data set: Two pulse assay protocol, Nav1.2. The settings on record: peak current. How it is done:
as §1, §2

The target in another data set is T5, human Nav1.7 (Homo sapiens, UniProt Q15858).
T5 construct: host or cells: HEK293
Description: Two pulse assay protocol, Nav1.7. The settings on record: peak current. The procedure: as §1, §2

A further data set has as its target T6, human Nav1.8 (Homo sapiens, UniProt Q9Y5Y9).
T6 construct: host or cells: HEK293
Description: Two pulse assay protocol, Nav1.8. The settings on record: peak current. The procedure:
as §1, §2

Data set [3] concerns the target T7, human Nav1.5 (late current) (Homo sapiens, UniProt Q14524).
T7 construct: host or cells: HEK293
Nature of the data set: Nav1.5 Late Current Assay (QPatch HT whole-cell patch clamp, 30 nM ATX-II). The settings on record: HEK293 cells stably expressing human Nav1.5, pH 7.3, late current with 30 nM ATX-II, read-out: percent inhibition hNav1.5 Late (5 uM). The procedure: as §1
Onset and steady state induction of late Nav1.5 current was measured using a pulse pattern, repeated every 5 sec, consisting of a hyperpolarizing pulse to −120 mV for a 200 ms duration, depolarization to −15 mV amplitude for a 40 ms duration, followed by step to 40 mV for 200 ms and finally a 100 ms ramp (1.2 V/s) to a holding potential of −80 mV. Each concentration of compound was applied for 5 minutes. The assay was performed at room temperature. After establishing vehicle control condition, all further addition of external solutions contain 30 nM ATX-II to activate late currents. Each concentration of compound was also co-applied with 30 nM ATXII to estimate the Nav1.5 late current inhibition. […]. ATXII was used as the agonist positive control and was tested concurrently with the test compound. Ranolazine was used as the positive control and was tested concurrently with the test compound.
Nav1.5 late current was measured as the total charge flowing through the Nav1.5 channels (area under the curve) 5 ms after the Nav1.5 peak current till the end of the test pulse and as charge at their maxima during the ramp. Individual cell results were normalized to their respective vehicle control and the results were averaged. The sodium current was assessed in 30 nM ATXII as vehicle control conditions and then at the end of each five (5) minute compound application in the presence of 30 nM ATXII. Individual cell result was normalized to 30 nM ATXII vehicle control amplitude and the mean±SEM calculated for each compound concentration.
Background: In patch-clamp work, channel activity is measured electrically.

In data set [4] the target is T8, human Nav1.5 (peak current) (Homo sapiens, UniProt Q14524).
T8 construct: host or cells: HEK293
Description: Nav1.5 Peak Current Assay (QPatch HT whole-cell patch clamp). The settings on record: HEK293 cells stably expressing human Nav1.5, pH 7.3, peak current at step to -15 mV, read-out: percent inhibition hNav1.5 Peak (5 uM). The procedure: as §1
Onset and steady state block of peak Nav1.5 current was measured using a pulse pattern, repeated every 5 sec, consisting of a hyperpolarizing pulse to −120 mV for a 200 ms duration, depolarization to -15 mV amplitude for a 40 ms duration, followed by step to 40 mV for 200 ms and finally a 100 ms ramp (1.2 V/s) to a holding potential of −80 mV. Peak current was measured during the step to −15 mV.
Each concentration of compound was applied for 5 minutes. The assay was performed at room temperature and Tetracaine was used concurrently as a positive control. Only current amplitudes in excess of 200 pA at the control stage were analyzed. The amplitude of the sodium current was calculated by measuring the difference between the peak inward current on stepping to −15 mV (i.e. peak of the current) and the leak current. The sodium current was assessed in vehicle control conditions and then at the end of each five (5) minute compound application. Individual cell result was normalized to the vehicle control amplitude and the mean±SEM calculated for each compound concentration.

Where [5] appears, read: pulse 1 (tonic), read-out: percent inhibition hNav1.6, Pulse 1 (5 uM).
Where [6] appears, read: pulse 2 (state-dependent), read-out: percent inhibition hNav1.6, Pulse 2 (5 uM).
Where [7] appears, read: pulse 1 (tonic), read-out: percent inhibition hNav1.2, Pulse 1 (5 uM).
Where [8] appears, read: pulse 2 (state-dependent), read-out: percent inhibition hNav1.2, Pulse 2 (5 uM).
The mark [9] stands for this setting: pulse 1 (tonic), read-out: percent inhibition hNav1.7, Pulse 1 (5 uM).
Where [10] appears, read: pulse 2 (state-dependent), read-out: percent inhibition hNav1.7, Pulse 2 (5 uM).
Setting [11] is: pulse 1 (tonic), read-out: percent inhibition hNav1.8, Pulse 1 (5 uM).
The mark [12] stands for this setting: pulse 2 (state-dependent), read-out: percent inhibition hNav1.8, Pulse 2 (5 uM).

T1 sequence (Q14524 whole entry): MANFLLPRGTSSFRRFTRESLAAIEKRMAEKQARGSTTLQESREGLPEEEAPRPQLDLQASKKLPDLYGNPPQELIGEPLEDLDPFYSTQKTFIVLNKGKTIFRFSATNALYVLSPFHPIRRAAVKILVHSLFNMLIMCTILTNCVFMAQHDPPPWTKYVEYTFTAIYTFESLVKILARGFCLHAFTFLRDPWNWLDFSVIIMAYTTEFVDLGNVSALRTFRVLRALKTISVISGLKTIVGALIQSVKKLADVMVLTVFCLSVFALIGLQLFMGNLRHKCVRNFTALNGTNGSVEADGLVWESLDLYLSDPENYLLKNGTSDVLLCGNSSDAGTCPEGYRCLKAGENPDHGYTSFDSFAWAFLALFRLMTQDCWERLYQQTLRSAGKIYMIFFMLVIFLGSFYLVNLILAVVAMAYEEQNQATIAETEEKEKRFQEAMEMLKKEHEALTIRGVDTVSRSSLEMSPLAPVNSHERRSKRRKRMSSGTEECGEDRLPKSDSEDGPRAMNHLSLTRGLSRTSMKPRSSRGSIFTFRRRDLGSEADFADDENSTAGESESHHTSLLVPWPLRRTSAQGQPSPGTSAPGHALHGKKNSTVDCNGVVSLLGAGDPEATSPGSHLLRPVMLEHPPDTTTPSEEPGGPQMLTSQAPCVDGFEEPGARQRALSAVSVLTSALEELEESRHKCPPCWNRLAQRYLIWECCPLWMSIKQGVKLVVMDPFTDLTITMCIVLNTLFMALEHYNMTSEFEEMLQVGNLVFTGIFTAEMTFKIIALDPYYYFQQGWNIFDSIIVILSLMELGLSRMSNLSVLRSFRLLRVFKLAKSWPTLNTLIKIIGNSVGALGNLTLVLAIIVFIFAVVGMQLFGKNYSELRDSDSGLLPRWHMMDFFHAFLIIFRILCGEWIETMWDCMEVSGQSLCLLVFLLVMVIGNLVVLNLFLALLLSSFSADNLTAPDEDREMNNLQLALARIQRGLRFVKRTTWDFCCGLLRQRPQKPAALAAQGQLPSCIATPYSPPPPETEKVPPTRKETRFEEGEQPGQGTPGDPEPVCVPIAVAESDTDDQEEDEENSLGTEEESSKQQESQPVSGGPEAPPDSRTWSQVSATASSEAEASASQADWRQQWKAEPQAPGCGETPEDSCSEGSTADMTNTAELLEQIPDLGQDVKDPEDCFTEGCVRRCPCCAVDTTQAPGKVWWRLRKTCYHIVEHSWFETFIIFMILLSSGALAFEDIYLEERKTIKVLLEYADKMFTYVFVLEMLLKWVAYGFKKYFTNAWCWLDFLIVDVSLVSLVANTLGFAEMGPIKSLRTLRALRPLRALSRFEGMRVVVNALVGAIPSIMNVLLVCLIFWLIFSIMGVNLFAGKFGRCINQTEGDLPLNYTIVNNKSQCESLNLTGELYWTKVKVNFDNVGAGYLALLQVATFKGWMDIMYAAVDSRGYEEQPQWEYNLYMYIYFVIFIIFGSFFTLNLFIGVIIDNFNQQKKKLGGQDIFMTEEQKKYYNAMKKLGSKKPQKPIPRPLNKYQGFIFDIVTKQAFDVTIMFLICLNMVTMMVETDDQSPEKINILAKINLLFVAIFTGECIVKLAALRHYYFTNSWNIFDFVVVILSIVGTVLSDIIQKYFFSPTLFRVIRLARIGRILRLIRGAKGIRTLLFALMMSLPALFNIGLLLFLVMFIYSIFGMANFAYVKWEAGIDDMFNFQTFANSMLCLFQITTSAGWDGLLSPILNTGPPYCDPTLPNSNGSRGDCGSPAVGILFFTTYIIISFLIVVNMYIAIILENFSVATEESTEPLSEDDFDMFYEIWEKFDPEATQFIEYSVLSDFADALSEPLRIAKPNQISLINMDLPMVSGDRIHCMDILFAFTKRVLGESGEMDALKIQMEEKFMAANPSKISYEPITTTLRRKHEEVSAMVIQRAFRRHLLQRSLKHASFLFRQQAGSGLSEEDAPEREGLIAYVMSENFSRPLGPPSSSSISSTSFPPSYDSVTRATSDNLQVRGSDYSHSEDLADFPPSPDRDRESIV
T8 sequence (Q14524 whole entry): as above

In the case of `CC(C)Oc1ccc(-c2ccc3ncc(-c4ccc(Oc5ccccc5)cc4)n3c2)cc1` [Example C72, 6-(4-isopropoxyphenyl)-3-(4-phenoxyphenyl)imidazo[1,2-a]pyridine], the figures for the inhibition at 5 min, 5 µM in data set [1] and in data set [2] were 50 to 90% and below 50%, respectively. The inhibition (as a rule, the share of the control response that was lost under treatment) at 5 µM at human Nav1.6 (setting [5]) was below 50%; at human Nav1.6 (setting [6]), above 90%; on human Nav1.2 (setting [7]), below 50%; on human Nav1.2 (setting [8]), above 90%; at human Nav1.7 (setting [9]), below 50%; at human Nav1.7 (setting [10]) it was above 90%.

Take `CC(C)Oc1ccc(-c2ccc3ncc(-c4ccc(C(C)C)cc4)n3c2)cc1` [Example C73, 6-(4-isopropoxyphenyl)-3-(4-isopropylphenyl)imidazo[1,2-a]pyridine]: the inhibition at 5 min, 5 µM in data set [1] is above 90%; in data set [2], below 50%. Moreover, the inhibition at 5 µM at human Nav1.6 (setting [5]) was below 50%; at human Nav1.6 (setting [6]) it was above 90%; at human Nav1.2 (setting [7]), below 50%; on human Nav1.2 (setting [8]), above 90%; on human Nav1.7 (setting [9]) it was below 50%; on human Nav1.7 (setting [10]) it was 50 to 90%.

With `CC(C)Oc1ccc(-c2ccc3ncc(-c4ccc(OC(C)C)nc4)n3c2)cc1` [Example C37, 2-(propan-2-yloxy)-5-{6-[4-(propan-2-yloxy)phenyl]imidazo[1,2-a]pyridin-3-yl}pyridine], the inhibition at 5 µM was below 50% at human Nav1.8 (setting [11]); 50 to 90% at human Nav1.8 (setting [12]); below 50% on human Nav1.6 (setting [5]); above 90% on human Nav1.6 (setting [6]); below 50% at human Nav1.7 (setting [9]); above 90% on human Nav1.7 (setting [10]). The inhibition at 5 min, 5 uM in data set [3] was above 90%. In addition, the inhibition at 5 min, 5 µM in data set [4] is below 50%.

As for `CS(=O)(=O)NC(=O)c1ccn2c(-c3ccc(OC(F)(F)F)cc3)cnc2c1` [Example C66, N-(methylsulfonyl)-3-(4-(trifluoromethoxy)phenyl)imidazo[1,2-a]pyridine-7-carboxamide], the inhibition at 5 µM on human Nav1.8 (setting [11]), at human Nav1.8 (setting [12]), on human Nav1.7 (setting [9]) and on human Nav1.7 (setting [10]) was below 50% in each case. The inhibition at 5 min, 5 µM in data set [1] and in data set [2] was below 50% each time.

Turning to `Cc1cc2ncc(-c3ccc(OC(C)C)nc3)n2cc1-c1ccc(OC(C)C)cc1` [Example C70, 6-(4-isopropoxyphenyl)-3-(6-isopropoxypyridin-3-yl)-7-methylimidazo[1,2-a]pyridine], the inhibition at 5 min, 5 uM in data set [3] was 50 to 90%. In addition, the inhibition at 5 µM on human Nav1.6 (setting [5]) and on human Nav1.6 (setting [6]) was below 50% each time. Moreover, the inhibition at 5 min, 5 µM in data set [4] is below 50%.

For `CS(=O)(=O)NC(=O)c1cc2ncc(-c3ccc(OC(F)(F)F)cc3)n2cc1-c1ccc(OC(F)(F)F)cc1` [Example C67, N-(methylsulfonyl)-3,6-bis(4-(trifluoromethoxy)phenyl)imidazo[1,2-a]pyridine-7-carboxamide], the inhibition at 5 µM on human Nav1.8 (setting [11]), at human Nav1.8 (setting [12]), on human Nav1.7 (setting [9]) and at human Nav1.7 (setting [10]) was below 50% throughout. Moreover, the inhibition at 5 min, 5 µM in data set [1] and in data set [2] was below 50% in each case.

In the case of `CC(C)Oc1ccc(-c2ccc3ncc(-c4ccc(OC(C)(C)C)cc4)n3c2)cc1` [Example C32, 3-[4-(tert-butoxy)phenyl]-6-[4-(propan-2-yloxy)phenyl]imidazo[1,2-a]pyridine], in data set [3], the inhibition at 5 min, 5 uM is above 90%. Further, the inhibition at 5 µM was below 50% on human Nav1.6 (setting [5]) and above 90% at human Nav1.6 (setting [6]). For the same compound, the inhibition at 5 min, 5 µM in data set [4] lay in the range of 50 to 90%.

On to `CS(=O)(=O)NC(=O)c1cc2ncc(-c3ccc(OC(F)(F)F)cc3)n2cc1-c1ccccc1` [Example C68, N-(methylsulfonyl)-6-phenyl-3-(4-(trifluoromethoxy)phenyl)imidazo[1,2-a]pyridine-7-carboxamide], for which the inhibition at 5 µM at human Nav1.8 (setting [11]), on human Nav1.8 (setting [12]), on human Nav1.7 (setting [9]) and on human Nav1.7 (setting [10]) was below 50% throughout. The inhibition at 5 min, 5 µM in data set [1] and in data set [2] was below 50% each time.

Take `CC(C)Oc1ccc(-c2ccc3ncc(-c4ccc(C(C)(C)C)nc4)n3c2)cc1` [Example C89, 3-(6-(tert-butyl)pyridin-3-yl)-6-(4-isopropoxyphenyl)imidazo[1,2-a]pyridine]: the figures for the inhibition at 5 min, 5 µM in data set [1] and in data set [2] were 50 to 90% and below 50%, respectively. The inhibition at 5 µM at human Nav1.6 (setting [5]) was below 50%; on human Nav1.6 (setting [6]), above 90%; at human Nav1.7 (setting [9]) it was below 50%; on human Nav1.7 (setting [10]), above 90%.
